Results from US20220296613A1, “FOOD-INDEPENDENT DOSING OF CV-10155 TO TREAT GABAA DISORDERS” (priority 2021, published 2022).
Several values for one entry are separate records, joined by “and”; a condition that tells them apart may be missing. Identical values can stand only once.

Test: Pharmacokinetics of CV-10155 solid dosage forms in fed or fasted beagle dogs
Conditions: for AUC(0-t): AUCLast; for MRT inf: MRTInf; for half-life: T½
[1] = HPMC-AS formulation, 10 mg PO, fed cohort, individual dogs
[2] = HPMC-AS formulation, 10 mg PO, fed cohort, mean of 4 dogs
[3] = HPMC-AS formulation, 10 mg PO, pentagastrin/fasted cohort, individual dogs
[4] = HPMC-AS formulation, 10 mg PO, pentagastrin/fasted cohort, mean of 4 dogs
[5] = HPMC-AS formulation, 30 mg PO, pentagastrin/fasted cohort, individual dogs
[6] = HPMC-AS formulation, 30 mg PO, pentagastrin/fasted cohort, mean of 4 dogs
[7] = male, beagle, dog, plasma, po, 10 mg, HPMC-AS formulation, 10 mg PO, fed cohort, mean of 4 dogs
[8] = male, beagle, dog, plasma, po, 10 mg, HPMC-AS formulation, 10 mg PO, pentagastrin/fasted cohort, mean of 4 dogs
[9] = male, beagle, dog, plasma, po, 10 mg, HPMC-AS formulation, 10 mg PO, fed cohort, individual dogs
[10] = male, beagle, dog, plasma, po, 30 mg, HPMC-AS formulation, 30 mg PO, pentagastrin/fasted cohort, mean of 4 dogs
[11] = male, beagle, dog, plasma, po, 30 mg, HPMC-AS formulation, 30 mg PO, pentagastrin/fasted cohort, individual dogs

## C[C@@]1(O)CC[C@@]2(C)[C@@H](CC[C@@H]3[C@@H]2CC[C@]2(C)[C@@H](C(=O)Cn4cc(C#N)cn4)CC[C@@H]32)C1 [CV-10155, 1-[2-[(3R,5S,8R,9S,10S,13S,14S,17S)-3-hydroxy-3,10,13-trimethyl-1,2,4,5,6,7,8,9,11,12,14,15,16,17-tetradecahydrocyclopenta[a]phenanthren-17-yl]-2-oxoethyl]pyrazole-4-carbonitrile]
[1]
  AUCExtr: 23.1% and 21.3% and 22.0% and 23.4%
  AUCInf: 5047 ng·h/mL and 2440 ng·h/mL and 2105 ng·h/mL and 3712 ng·h/mL
  AUCInf/D: 5602 kg·ng·h/mL/mg and 2929 kg·ng·h/mL/mg and 2273 kg·ng·h/mL/mg and 4084 kg·ng·h/mL/mg
  AUCLast: 3882 ng·h/mL and 1919 ng·h/mL and 1641 ng·h/mL and 2845 ng·h/mL
  Cmax: 512 ng/mL and 334 ng/mL and 273 ng/mL and 649 ng/mL
  F: 71.6% and 38.3% and 29.4% and 52.0%
  MRTInf: 14.8 h and 15.0 h and 15.5 h
  T½: 12.5 h and 12.2 h and 15.0 h
[2]
  AUCExtr: 22.5%
  AUCInf/D: 3722 kg·ng·h/mL/mg
  F: 47.8%
[3]
  AUCExtr: 20.4% and 14.1% and 47.1% and 17.9%
  AUCInf: 2465 ng·h/mL and 2612 ng·h/mL
  AUCInf/D: 2762 kg·ng·h/mL/mg and 2441 kg·ng·h/mL/mg and 3314 kg·ng·h/mL/mg and 2821 kg·ng·h/mL/mg
  AUCLast: 2118 ng·h/mL and 1754 ng·h/mL and 2145 ng·h/mL
  Cmax: 340 ng/mL and 183 ng/mL and 217 ng/mL
  F: 36.5% and 34.8% and 29.1% and 38.5%
  MRTInf: 14.8 h and 11.6 h and 33.6 h and 13.6 h
  Tmax: 1 h
  T½: 11.1 h and 8.84 h and 25.7 h and 9.66 h
[4]
  AUCExtr: 24.8%
  AUCInf/D: 2834 kg·ng·h/mL/mg
  F: 34.7%
[5]
  AUCExtr: 30.3% and 27.1% and 19.4% and 24.4%
  AUCInf: 12588 ng·h/mL and 8620 ng·h/mL and 4072 ng·h/mL and 7783 ng·h/mL
  AUCInf/D: 4995 kg·ng·h/mL/mg and 3157 kg·ng·h/mL/mg and 1572 kg·ng·h/mL/mg and 2982 kg·ng·h/mL/mg
  AUCLast: 8769 ng·h/mL and 6285 ng·h/mL and 3281 ng·h/mL and 5884 ng·h/mL
  Cmax: 1440 ng/mL and 954 ng/mL and 302 ng/mL and 993 ng/mL
  F: 57.8% and 38.3% and 21.1% and 37.5%
  MRTInf: 18.1 h and 14.4 h and 16.2 h
  T½: 13.6 h and 9.98 h and 12.3 h
[6]
  AUCExtr: 25.3%
  AUCInf/D: 3177 kg·ng·h/mL/mg
  F: 38.6%
male, beagle, dog, in vivo, po, 10 mg
  AUC(0-inf): 3310 ng·h/mL
male, beagle, dog, plasma, po, 10 mg, AUCInf, HPMC-AS formulation, 10 mg PO, fed cohort, mean of 4 dogs
  AUC(0-inf): 3330 ng·h/mL
male, beagle, dog, plasma, po, 10 mg, AUCInf, HPMC-AS formulation, 10 mg PO, pentagastrin/fasted cohort, individual dogs
  AUC(0-inf): 2630 ng·h/mL
male, beagle, dog, plasma, po, 10 mg, AUCInf, HPMC-AS formulation, 10 mg PO, pentagastrin/fasted cohort, mean of 4 dogs
  AUC(0-inf): 2760 ng·h/mL
[7]
  AUC(0-t): 2570 ng·h/mL
  MRT inf: 15.3 h
  half-life: 13.1 h
male, beagle, dog, plasma, po, 10 mg, HPMC-AS formulation, 10 mg PO, pentagastrin/fasted cohort, individual dogs
  AUC(0-t): 2090 ng·h/mL
[8]
  AUC(0-t): 2030 ng·h/mL
  MRT inf: 18.4 h
  half-life: 13.8 h
male, beagle, dog, plasma, po, 10 mg, Cmax, HPMC-AS formulation, 10 mg PO, fed cohort, mean of 4 dogs
  Cmax: 442 ng/mL
male, beagle, dog, plasma, po, 10 mg, Cmax, HPMC-AS formulation, 10 mg PO, pentagastrin/fasted cohort, individual dogs
  Cmax: 222 ng/mL
male, beagle, dog, plasma, po, 10 mg, Cmax, HPMC-AS formulation, 10 mg PO, pentagastrin/fasted cohort, mean of 4 dogs
  Cmax: 241 ng/mL
[9]
  MRT inf: 15.7 h
  half-life: 12.6 h
male, beagle, dog, plasma, po, 10 mg, Tmax, HPMC-AS formulation, 10 mg PO, fed cohort, mean of 4 dogs
  Tmax: 1.13 h
male, beagle, dog, plasma, po, 10 mg, Tmax, HPMC-AS formulation, 10 mg PO, pentagastrin/fasted cohort, individual dogs
  Tmax: 2 h
male, beagle, dog, plasma, po, 10 mg, Tmax, HPMC-AS formulation, 10 mg PO, pentagastrin/fasted cohort, mean of 4 dogs
  Tmax: 1.5 h
male, beagle, dog, plasma, po, 30 mg, AUCInf, HPMC-AS formulation, 30 mg PO, pentagastrin/fasted cohort, mean of 4 dogs
  AUC(0-inf): 8270 ng·h/mL
[10]
  AUC(0-t): 6060 ng·h/mL
  MRT inf: 17.2 h
  half-life: 13.4 h
male, beagle, dog, plasma, po, 30 mg, Cmax, HPMC-AS formulation, 30 mg PO, pentagastrin/fasted cohort, mean of 4 dogs
  Cmax: 922 ng/mL
[11]
  MRT inf: 20 h
  half-life: 17.8 h
male, beagle, dog, plasma, po, 30 mg, Tmax, HPMC-AS formulation, 30 mg PO, pentagastrin/fasted cohort, mean of 4 dogs
  Tmax: 1 h
